# Patent publication US10975123B2, “Mutant Akt-specific capture agents, compositions, and methods of using and making” (California Institute of Technology, priority 2014, dated 2021)
# Entries after “also recorded” stand apart in the source; their conditions may differ. Where a SMILES comes first, the peptide text is derived from it. [ ]: non-standard residue; d: D form.
# How the values were obtained:
# [1] = molecular target: T1, E17K 33-mer fragment (6His-tagged) (Homo sapiens, UniProt P31749, E17K/H13K); test: HPLC-detected immunoprecipitation (pulldown), E17K 33-mer; format: binding; settings: 50 μM epitope, overnight 4° C., guanidine elution, in words
# T1 construct: made in house; host or cells: chemical synthesis (Fmoc SPPS)
# T1 sequence (P31749 1-33 H13K/E17K limits assumed): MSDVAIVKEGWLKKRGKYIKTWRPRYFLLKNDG
# Excerpt: The label-modified yleaf (SEQ ID NO: 43) peptide (FIG. 2a and FIG. 12) was subjected to a variety of binding assays against the synthesized WT and E17K 33-mer PHD fragments prepared without the biotin label and alkyne click handle. First, the yleaf (SEQ ID NO: 43) peptide was used in immunoprecipitation assays to pull-down either the WT or E17K mutant 6His-tagged (SEQ ID NO: 4) 33-mer peptide fragments (FIGS. 13 and 14), as opposed to the full-length proteins that were used to initially validate the candidates. Typical immunoprecipitation assays involve western blotting to estimate the amount of protein binding, but 33-mer peptide fragments are not easily quantified on a blot. Because of this, the amount of peptide epitope precipitated in these assays was quantified via injection on an analytical HPLC. These assays further confirmed preferential yleaf (SEQ ID NO: 43) ligand binding to the E17K 33-mer epitope relative to the WT epitope (FIG. 15).
# Pulldown assays with the biotinylated anchor and his-tagged 33-mer epitope were performed to verify epitope targeting. […] Because small peptide fragments like the 33-mer epitope are difficult to transfer to and detect on the nitrocellulose membrane as for a traditional Western blot, the amount of binding in these assays was detected via HPLC. […]
# [2] = molecular target: T2, E17K PH Domain binding to PIP3 (Homo sapiens, UniProt P31749, E17K); test: PIP3 agarose inhibition assay, E17K; format: biochemical; settings: ligand 2.38 μM (10x protein), protein 234 nM, western blot, in words
# T2 construct: 2 μg of either wildtype or mutant PH Domain-GFP protein (234 nM); made in house; host or cells: HEK-293-6E (used as cell lysate, not purified)
# Excerpt: The yleaf ligand, the biligand, and the triligand were all tested for their ability to block the E17K PHD binding with PIP3. For this test, PIP3-coated resin (Echelon Biosciences) was used to mimic the PHD interaction with the cell membrane, and could be used to bind the protein as in an immunoprecipitation assay^22. The presence of an effective blocking compound would reduce the ability of the resin to capture the protein, and would thus appear as a diminished signal in the corresponding western blot assay. A control lane containing no capture agent was used to show baseline binding of the protein to the PIP3 resin. […] In an expanded study, we compared the amount of E17K and WT PH domain binding relative to the amount of added triligand (FIG. 5e).
# PIP3 Agarose beads (Echelon) were used to detect for the inhibition of PH Domain binding to its substrate, PIP3, upon incubation with the anchor candidate peptide ligands. To test the inhibition of each of the ligands, anchor biligand and triligand, 20 μL of resin slurry was added to each of four tubes and washed three times with 1×TBS. Protein, 2 μg (234 nM) of E17K mutant, was preincubated for one hour at room temperature with either DMSO (no protein blank), anchor, biligand or triligand at 2.38 μM (10× in relation to protein) in 200 μL of 1×TBS. For the control, mutant PH Domain was incubated with 1×TBS and 1 μL […] to mimic the ligand conditions. These protein samples were then added to PIP3 agarose in a Spin-X tube and incubated at room temperature for two hours. The resin was washed three times with 1×TBS with 0.25% IGEPAL CA-630, spun out to dry completely, then denatured with 50 μL 3×SDS gel loading buffer for 10 min at 95° C. The gel loading buffer was spun out of the resin and detected via western blot as per the Streptavidin-Agarose Pulldowns. Inhibition was indicated by a decrease in the amount of PH Domain that was pulled down by the resin.
# Expanded inhibition blots with either WT of E17K mutant protein were performed in a similar fashion. Twelve tubes of 20 μL of PIP3 agarose were washed three times with 1×TBS. 2 μg of either wildtype or mutant PH Domain-GFP protein (234 nM) in 200 uL 1×TBS were preincubated for 30 minutes with differing concentrations of triligand: 0.1 eq (23.4 nM), 1 eq (234 nM), 10 eq (2.34 μM), 100 eq (23.4 μM), and 1000 eq (234 μM). The protein and triligand solutions were then incubated with the PIP3 resin for 2 hours at room temperature. The resins were washed, eluted, and blotted as per all PH Domain western blots.
# T2 sequence (P31749 5-108 E17K limits assumed): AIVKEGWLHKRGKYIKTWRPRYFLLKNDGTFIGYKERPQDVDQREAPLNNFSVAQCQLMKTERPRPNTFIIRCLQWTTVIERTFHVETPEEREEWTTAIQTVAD
structure (smiles),measurement,setting,value
CC(C)C[C@@H](NC(=O)[C@H](N)Cc1ccc(O)cc1)C(=O)N[C@H](CCC(=O)O)C(=O)N[C@H](C)C(=O)N[C@H](Cc1ccccc1)C(N)=O [yleaf] (H-[dY][dL][dE][dA][dF]-NH2; N-terminus assumed),amount of E17K 33-mer fragment pulled down (HPLC peak),[1],preferential; also recorded: pulls down the most of the E17K 33mer fragment
same,inhibition of E17K PH Domain binding to PIP3-coated resin,[2],did not exhibit evidence of inhibition; also recorded: no change in E17K binding ability
